Experiments:
[1] = Dissolution of bilayer time release multi-B vitamin tablets, USP Apparatus 2 (paddle), HPLC; format: physicochemical
Protocol: To investigate the effect of basic yeast on the dissolution profile of folic acid from vitamin B time release tablet, five formulas (Table 2) with different amounts of yeast were tested. The amount of yeast in the modified release layer was kept constant at 30 mg and included at least 15% hydroxypropyl methylcellulose (which acts as a controlled-release polymer).
Dissolution testing was performed using a qualified Sotax dissolution tester operated as USP Apparatus 2 (paddle) at 75 rpm and at 37±0.5° C. The media used for dissolution was different for different B vitamins and was selected to minimize degradation of these vitamins for the length of the study i.e. 8 hours. Each dissolution test was performed with 6 tablets. Sample aliquots were collected at 2, 4, 6, and 8 hour and filtered through 0.45-μm Millex-HV syringe filters, and analyzed by HPLC for dissolution samples.

[2] = cited from earlier work
[3] = USP <711> in vitro dissolution of Nutrilite Vitamin B formulation NF6853; format: physicochemical
Source text: The USP requirement for instant release vitamins is for not less than 75% of label claim to be released within one hour.

Compound	Solubility in Water (Per 100 ml water) [2] [g per 100 ml water]	further results
O=C(O)CCCC[C@@H]1SC[C@@H]2NC(=O)N[C@@H]21 [Biotin, biotin]	0.022	predicted release profile from modified release matrix ([1]; predicted from release of folic acid and thiamine and solubility order, biotin was not analyzed): intermediate release profile
Nc1nc2ncc(CNc3ccc(C(=O)N[C@@H](CCC(=O)O)C(=O)O)cc3)nc2c(=O)[nH]1 [Folic Acid, folic acid]	0.016	
NC(=O)c1cccnc1 [Niacinamide (B3), niacinamide]	69.1	
Cc1ncc(CO)c(CO)c1O [Pyridoxine (B6), pyridoxine]	30.8	
Cc1cc2nc3c(=O)[nH]c(=O)nc-3n(C[C@H](O)[C@H](O)[C@H](O)CO)c2cc1C [Riboflavin (B2), riboflavin]	0.010	release from the immediate release layer, % of the label claim ([1]; bi-layer tablet, immediate release layer): around 104%; release of riboflavin (B2) within an hour ([3]; in vitro dissolution, meets USP requirement of not less than 75% of label claim within one hour): complete release; % release (input) ([3]; instant release layer of NF6853, 1 hour, cumulative release based on input): 77.12%; % release (LC) ([3]; instant release layer of NF6853, 1 hour, cumulative release based on label claim): 104%

Source: patent US11291683B2, “Bilayer tablets of B vitamins and process for preparing the same” (Access Business Group International LLC, priority 2016, dated 2022)
